This assay deals with spontan hypertensiven Ratte. Description: Blood pressure lowering in the spontaneously hypertensive rat after oral dosing. The class given is in vivo. To be noted: lowest dose that still lowers blood pressure by at least 15 mm Hg, read-out: niederste noch wirksame, orale Dosis. The source says: Die in der folgenden Tabelle angeführten Verbindungen senken an der spontan hypertensiven Ratte den Blutdruck um mindestens 15 mm Hg. Angegeben ist die niederste noch wirksame, orale Dosis.
`CC(NC(=O)c1ccccc1C(=O)Nc1ccccc1)C(C)(C)C` (stereo not drawn) [Beispiel 12, N-Phenyl-N'-(1,2,2-trimethylpropyl)-phtalamid]: the minimal effective dose amounted to 10 mg/kg.
As to `CCOc1ccccc1NC(=O)c1ccccc1C(=O)NC(C)C(C)(C)C` (stereo not drawn) [Beispiel 13, N-(2-Ethoxyphenyl)-N'-(1,2,2-trimethylpropyl)-phtalamid], the minimal effective dose stood at 10 mg/kg.
With `CC(NC(=O)c1ccccc1C(=O)Nc1cccnc1)C(C)(C)C` (stereo not drawn) [Beispiel 26, N-(3-Pyridyl)-N'-(1,2,2-trimethylpropyl)-phtalamid], the minimal effective dose turned out to be 3 mg/kg.

These data come from patent EP0119428A2, “Biscarboxamides for treating diseases, and process for their preparation” (BAYER AG, priority 1983, dated 1984).
